One series can be described thus: in vitro. The note with it: mouse, BaF3 cells.
In series [1] the test system is Receptor-type tyrosine-protein kinase FLT3 (Homo sapiens), P36888 [UNDEFINED MUTATION]. The note with it: MV4-11.
Description: Inhibition of FLT3 ITD mutant expressed in human MV4-11 cells assessed as reduction in cell growth incubated for 72 hrs by CCK8 assay
The test system is the same in series [2]. The note with it: BaF3.
Description: Inhibition of FLT3 ITD mutant expressed in human BaF3 cells assessed as reduction in cell growth incubated for 72 hrs by CCK8 assay

19 compounds from ChEMBL document CHEMBL4619814, “Identification and Development of 1,4-Diaryl-1,2,3-triazolo-Based Ureas as Novel FLT3 Inhibitors” (ACS Med Chem Lett, 2020) can be followed below.

A value given as a limit tells only on which side of the number the result lay.

Receptor-type tyrosine-protein kinase FLT3 (Homo sapiens), P36888 [UNDEFINED MUTATION], sequence (P36888 whole entry, looked up, change not shown): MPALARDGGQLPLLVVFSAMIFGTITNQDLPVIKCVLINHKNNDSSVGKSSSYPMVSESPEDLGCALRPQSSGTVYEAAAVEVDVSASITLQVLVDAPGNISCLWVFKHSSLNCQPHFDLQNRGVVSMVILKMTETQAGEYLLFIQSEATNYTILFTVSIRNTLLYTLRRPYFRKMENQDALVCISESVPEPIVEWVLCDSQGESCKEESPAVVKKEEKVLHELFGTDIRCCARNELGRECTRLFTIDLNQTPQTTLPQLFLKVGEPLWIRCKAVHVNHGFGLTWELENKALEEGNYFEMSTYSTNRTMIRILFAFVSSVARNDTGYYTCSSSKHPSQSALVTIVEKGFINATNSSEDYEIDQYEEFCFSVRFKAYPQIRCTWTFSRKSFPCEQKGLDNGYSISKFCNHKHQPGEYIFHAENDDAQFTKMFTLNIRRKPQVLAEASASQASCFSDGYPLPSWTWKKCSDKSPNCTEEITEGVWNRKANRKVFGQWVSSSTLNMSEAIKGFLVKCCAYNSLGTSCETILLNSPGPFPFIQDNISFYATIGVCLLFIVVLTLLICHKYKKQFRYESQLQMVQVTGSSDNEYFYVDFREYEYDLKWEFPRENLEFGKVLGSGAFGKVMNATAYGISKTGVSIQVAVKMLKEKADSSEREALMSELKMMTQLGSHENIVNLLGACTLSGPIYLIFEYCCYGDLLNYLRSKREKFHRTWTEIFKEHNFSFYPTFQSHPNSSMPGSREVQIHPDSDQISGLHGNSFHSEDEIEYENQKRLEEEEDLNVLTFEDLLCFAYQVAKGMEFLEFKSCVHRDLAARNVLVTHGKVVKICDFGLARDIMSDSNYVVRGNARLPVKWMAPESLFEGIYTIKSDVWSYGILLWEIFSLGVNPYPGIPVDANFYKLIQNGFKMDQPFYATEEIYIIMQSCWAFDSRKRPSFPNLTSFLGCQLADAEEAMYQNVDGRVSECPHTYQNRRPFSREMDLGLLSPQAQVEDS
Description for in vitro: Cytotoxicity against human BAF3 cells assessed as growth inhibition incubated for 72 hrs by CCK8 assay

One may read the GI50 as the concentration at which growth is held to half of that of the control. Higher therefore signals lower sensitivity of the cells. Compound `CC(C)(C)c1cc(NC(=O)Nc2ccc(-c3cn(-c4ccc(OCCN5CCOCC5)cc4)nn3)cc2)no1` returned a GI50 at 72 h in “in vitro” above 3000 nM. In addition, the GI50 in series [1] was 4 nM.
Turning to `Cc1cc(-n2cc(-c3ccc(NC(=O)Nc4cc(C(C)(C)C)on4)cc3)nn2)ccc1OCCN1CCOCC1`, the GI50 in series [2] is 1 nM; in series [1] it was 7.1 nM. The compound also had a GI50 at 72 h in the series “in vitro” of 1970 nM.
With `CC(C)(C)c1cc(NC(=O)Nc2ccc(-c3cn(-c4ccc(OCCN5CCOCC5)c(C(F)(F)F)c4)nn3)cc2)no1`, the GI50 in series [2] worked out at 48.5 nM; in series [1], 106 nM. This compound showed a GI50 at 72 h in “in vitro” of 1520 nM.
Regarding `CC(C)(C)c1cc(NC(=O)Nc2ccc(-c3cn(-c4ccc(OCCCN5CCOCC5)cc4Cl)nn3)cc2)no1`, the values for the GI50 in series [2] and in series [1] were 1.5 nM and 6.2 nM, respectively. Besides, in “in vitro”, the GI50 at 72 h was above 3000 nM.
In the case of `Cc1cc(-c2cn(-c3ccc(OCCN4CCOCC4)cc3)nn2)ccc1NC(=O)Nc1cc(C(C)(C)C)on1`, the GI50 in series [2] is 61.5 nM; in series [1], 344 nM. Besides, the GI50 at 72 h in the series “in vitro” amounted to 2160 nM.
For `CC(C)(C)c1cc(NC(=O)Nc2ccc(-c3cn(-c4ccc(OCCN5CCOCC5)cc4)nn3)cc2Cl)no1`, in that order: 165 nM, 498 nM and above 3000 nM.
For `CC(C)(C)c1cc(NC(=O)Nc2ccc(-c3cn(-c4ccc(OCCN5CCOCC5)cc4)nn3)c(F)c2)no1` the same measures were 1.5 nM, 10.3 nM and above 3000 nM.
Regarding `CC(C)(C)c1cc(NC(=O)Nc2ccc(-c3cn(-c4ccc(OCCN5CCOCC5)cc4F)nn3)cc2)no1`, the 50% growth inhibitory concentration (GI50) at 72 h in the series “in vitro” was above 3000 nM. Further, in series [1], the GI50 was 5.1 nM.
Turning to `CC(C)(C)c1cc(NC(=O)Nc2ccc(-c3cn(-c4ccc(OCCN5CCOCC5)c(Cl)c4)nn3)cc2)no1`, the values for the GI50 in series [2] and in series [1] were 2.8 nM and 21.5 nM, respectively. This compound came in with a GI50 at 72 h in the series “in vitro” of 1380 nM.
With `COc1cc(-n2cc(-c3ccc(NC(=O)Nc4cc(C(C)(C)C)on4)cc3)nn2)ccc1OCCN1CCOCC1`, in the series “in vitro”, the GI50 at 72 h was above 3000 nM. The concentration for 50% growth inhibition (GI50) in series [1] came to 4.8 nM.
As for `CC(C)(C)c1cc(NC(=O)Nc2ccc(-c3cn(-c4ccc(OCCN5CCOCC5)cc4C(F)(F)F)nn3)cc2)no1`, the GI50 amounted to 40.5 nM in series [2] and 58.6 nM in series [1]. The compound further displayed a GI50 at 72 h in the series “in vitro” above 3000 nM.
For `CC(C)(C)c1cc(NC(=O)Nc2ccc(-c3cn(-c4ccc(OCCN5CCOCC5)cc4Br)nn3)cc2)no1`, in that order: 2.3 nM, 5.7 nM and 2020 nM.
For `COc1cc(-c2cn(-c3ccc(OCCN4CCOCC4)cc3)nn2)ccc1NC(=O)Nc1cc(C(C)(C)C)on1` the same measures were 851 nM, 1220 nM and 1510 nM.
With `CC(C)(C)c1cc(NC(=O)Nc2ccc(-c3cn(-c4ccc(OCCN5CCOCC5)cc4)nn3)cc2F)no1`, the GI50 in series [2] was determined as 4.2 nM; in series [1] it was 19.6 nM. This compound also returned a GI50 at 72 h in the series “in vitro” above 3000 nM.
With `CC(C)(C)c1cc(NC(=O)Nc2ccc(-c3cn(-c4ccc(OCCN5CCCCC5)cc4Cl)nn3)cc2)no1`, the GI50 at 72 h in the series “in vitro” worked out at 1960 nM. In addition, the GI50 in series [1] is 5.6 nM.
For `CN(C)CCOc1ccc(-n2cc(-c3ccc(NC(=O)Nc4cc(C(C)(C)C)on4)cc3)nn2)c(Cl)c1`, in that order: above 3000 nM and 4 nM.
For `CC(C)(C)c1cc(NC(=O)Nc2ccc(-c3cn(-c4ccc(OCCN5CCCC5)cc4Cl)nn3)cc2)no1` the same measures were 2040 nM and 5 nM.
Regarding `CC(C)(C)c1cc(NC(=O)Nc2ccc(-c3cn(-c4ccc(OCCN5CCOCC5)cc4)nn3)c(Cl)c2)no1`, the results for the GI50 in series [2] and in series [1] were 3 nM and 12 nM, respectively. Besides, in “in vitro”, the GI50 at 72 h is above 3000 nM.
For `CC(C)(C)c1cc(NC(=O)Nc2ccc(-c3cn(-c4ccc(OCCN5CCOCC5)c([N+](=O)[O-])c4)nn3)cc2)no1`, in that order: 55.4 nM, 39.2 nM and above 3000 nM.
